According to patent US8759356B2, “Compounds and methods for controlling fungi” (Dow AgroSciences, LLC., priority 2009, dated 2014):

What was measured:
[1] = tested on: Septoria tritici (SEPTTR); experiment: One day protectant test against Septoria blotch of wheat; type: in vivo; conditions: wheat 'Yuma' seedlings, inoculated the day after treatment
Procedure: (§1) It will be understood by those in the art that the efficacy of the compounds against the foregoing fungi establishes the general utility of the compounds as fungicides. The activity of the compounds as effective fungicides was determined by applying the compounds to plants and observing control of fungal disease. The compounds were formulated at rates of 50 ppm and 200 ppm in 10 vol. % acetone plus 90 vol. % Triton X water (deionized water 99.99 wt %+0.01 wt % Triton X100), giving a “formulated test compound.” Formulated test compounds were applied to plants using a turntable sprayer fitted with two opposing air atomization nozzles which delivered approximately 1500 L/ha of spray volume.
(§2) Again referring to Table 1, tests were carried out to determine a given exemplary compound's ability to prevent or at least limit a fungal infection as follows. All plants in the study were inoculated with spores of the fungus in this case either PUCCRT or SEPTTR) the day after treatment with the putative fungicide. Next, the plants were incubated in an environment conducive to disease development. Disease severity was evaluated 7 to 25 days later, depending on the speed of disease development. The following experiments were performed in the laboratory to determine the fungicidal efficacy of the compounds of the invention.
Measuring the Preventative Effect of Various Compounds Against Septoria Blotch of Wheat (Causal Agent Bayer Code SEPTTR).
(§3) Each pot contained 3-10 seedlings. These plants were sprayed until wet with the formulated test compound. On the following day, the leaves were inoculated with an aqueous spore suspension of Septoria tritici and the plants were kept in high humidity (one day in a dark dew chamber followed by three days in a lighted dew chamber) to permit the spores to germinate and to infect the leaf. The plants were then transferred to a greenhouse until disease developed on untreated control plants. These tests were carried out using two different levels of the compound, 50 ppm and 200 ppm, see Table 1.
(§4) Disease control was determined by visually estimating the percent disease severity in treated and untreated pots 7 to 24 days after inoculation, depending on speed of disease development. Evaluations were typically made 7 or 8 days after inoculation for PUCCRT and 18 to 22 days after inoculation for SEPTTR. Percent disease control (% DC) was calculated by: % DC=(1−% Disease severity treated/% disease severity untreated)*100.

[2] = tested on: Septoria tritici (SEPTTR); experiment: Three day curative test against Septoria blotch of wheat; type: in vivo; conditions: wheat 'Yuma' seedlings, treated three days after inoculation
Procedure: as §1
Measuring the Curative Effect of Various Compounds Against Septoria Blotch of Wheat (Causal Agent Bayer Code SEPTTR).
as §3, with “plants” for “plants were sprayed until wet with the formulated test compound. On the following day, the leaves”, “two” for “three”, “then removed form the dew chamber and allowed to dry. After drying, the inoculated plants were sprayed until wet with the formulated test compound. On the following day, the plants were” for “then”
as §4

[3] = tested on: Puccinia recondita tritici (PUCCRT); experiment: One day protectant test against leaf rust of wheat; type: in vivo; conditions: wheat 'Yuma' seedlings, inoculated the day after treatment
Procedure: as §1, §2
Measuring the Protective Effect of Various Compounds Against Leaf Rust of Wheat (Causal Agent Bayer Code PUCCRT).
as §3, with “3-8” for “3-10”, “compounds.” for “compound.”, “Puccinia recondita” for “Septoria”, “overnight” for “(one day in a dark dew chamber followed by three days in a lighted dew chamber)”
as §4

Compound	melting point	Percent Disease Control, One Day Protectant, SEPTTR ([1]; 50 ppm spray)	Percent Disease Control, One Day Protectant, SEPTTR ([1]; 200 ppm spray)	Percent Disease Control, Three Day Curative, SEPTTR ([2]; 50 ppm spray)	Percent Disease Control, Three Day Curative, SEPTTR ([2]; 200 ppm spray)	Percent Disease Control, One Day Protectant, PUCCRT ([3]; 50 ppm spray)	Percent Disease Control, One Day Protectant, PUCCRT ([3]; 200 ppm spray)
Clc1ccc(-c2ncc(Cl)c(NC3CC3)n2)cc1 [Example 1]	103 to 105 °C	90%	97%	0%	0%	93%	97%
Clc1ccc(-c2ncc(Cl)c(NC3CC3)n2)cc1Cl [compound 2]	–	0%	35%	62%	72%	0%	0%
Fc1cc(Cl)ccc1-c1ncc(Cl)c(NC2CC2)n1 [compound 4]	–	38%	86%	0%	18%	50%	99%
Clc1cnc(-c2ccccc2)nc1NC1CC1 [compound 5]	–	38%	90%	0%	0%	99%	99%
Cc1ccc(-c2ncc(Cl)c(NC3CC3)n2)cc1 [compound 6]	–	65%	95%	0%	27%	97%	99%
Clc1ccc(-c2nc(NC3CC3)ncc2Cl)cc1 [compound 7]	–	91%	61%	50%	50%	53%	0%
